Experimental data published in patent US20250333377A1, “SOLID FORM OF NAPHTHYLAMINE MITOPHAGY INDUCER, AND PREPARATION METHOD THEREFOR, PHARMACEUTICAL COMPOSITION THEREOF AND USE THEREOF” (HANGZHOU PHECDAMED CO., LTD., priority 2023, published 2025).

Experiments:
[1] = Hygroscopicity (vapor sorption analyser, DVS); type: physicochemical; details: for Percentage weight gain by moisture absorption: 90% RH, 25° C.; for Hygroscopicity (in words): according to Table 7, 90% RH
Description: Single crystalline sample of compound TJ01-013 is tested using a Waters vaporsorption analyser. Taking a dry weighing tray, and laying a single sample of crystal form flat in the weighing tray, and the volume of the loaded samples is about ⅓ to ⅔ of that of the weighing tray. Instrument parameters are set as follows: temperature: 25° C.; equilibrium: dm/dt=0.01%/min (minimum time: 10 minutes, and maximum time: 180 minutes); drying: drying 120 minutes under 0% RH; RH (%) testing gradient: 10%; RH (%) test gradient range: 0%-90%-0%.

[2] = Crystal form conversion (heat treatment, suspension competition test, DSC analysis); type: physicochemical; details: for Crystal form conversion / relative stability in suspension competition test: equal amounts mixed, RT/50, magnetic stirring ~1000 rpm, about 20 hours
Text: The mutual conversion relationship among the A, B, C, D crystal forms of the sodium salt is further studied in this embodiment by heat treatment under nitrogen protection and suspension competition test.
However, the methods of heating, suspension pulping as well as grinding can not study the thermodynamic conversion relationship between crystal form A and crystal form D. In order to further study the thermodynamic conversion relationship of crystal form A and crystal form D, analyzed from the DSC pattern, the DSC of crystal form A is shown in FIG. 2, and the DSC of crystal form D is shown in FIG. 11, the melting point of crystal form A is higher than that of crystal form D, whereas the enthalpy of melting of crystal form A is much lower than that of crystal form D. It may be judged from the thermodynamic stability relationship table that if TA>TD, ΔHf, A>ΔHf, D, crystal form A and D is a univariate relationship, crystal form A is stable, if TA>TD, ΔHf, A<ΔHf, D, crystal forms A and D are reciprocal relationships, if the temperature is higher than the transcrystallization temperature, crystal form A is stable, and if the temperature is lower than the transcrystallization temperature, crystal form D is stable.

Row | SMILES | Percentage weight gain by moisture absorption [1] [%] | Hygroscopicity (in words) [1] | other results
1 | O=C(O)C[S+]([O-])c1cc(NS(=O)(=O)c2ccc(Br)cc2)c2ccccc2c1O (stereo not drawn) [Embodiment 13] | 0.439 | slightly hygroscopic | –
2 | O=C(O)C[S+]([O-])c1cc(NS(=O)(=O)c2ccc(Br)cc2)c2ccccc2c1O (stereo not drawn) [Embodiment 1] | – | – | Crystal form conversion / relative stability in suspension competition test ([2]; listed as crystal form A): more stable than crystal form B, C
3 | O=C(O)C[S+]([O-])c1cc(NS(=O)(=O)c2ccc(Br)cc2)c2ccccc2c1O (stereo not drawn) [Embodiment 5] | 2.655 | slightly hygroscopic | –
4 | O=C(O)C[S+]([O-])c1cc(NS(=O)(=O)c2ccc(Br)cc2)c2ccccc2c1O (stereo not drawn) [Embodiment 3] | – | – | Crystal form conversion / relative stability in suspension competition test ([2]; listed as crystal form C): able to be converted into crystal form A, D
5 | O=C(O)C[S+]([O-])c1cc(NS(=O)(=O)c2ccc(Br)cc2)c2ccccc2c1O (stereo not drawn) [Embodiment 2] | – | – | Crystal form conversion / relative stability in suspension competition test ([2]; listed as crystal form B): able to be converted into crystal form A, D; Crystal form conversion on heat treatment ([2]; heating to 106° C. and then cooling to room temperature, nitrogen protection): converted into crystal form C
6 | O=C(O)C[S+]([O-])c1cc(NS(=O)(=O)c2ccc(Br)cc2)c2ccccc2c1O (stereo not drawn) [Embodiment 10] | 0.2033 | slightly hygroscopic | –
7 | O=C(O)C[S+]([O-])c1cc(NS(=O)(=O)c2ccc(Br)cc2)c2ccccc2c1O (stereo not drawn) [Embodiment 6] | 7.275 | – | –
8 | O=C(O)C[S+]([O-])c1cc(NS(=O)(=O)c2ccc(Br)cc2)c2ccccc2c1O (stereo not drawn) [Embodiment 7] | 2.313 | slightly hygroscopic | –
9 | O=C(O)C[S+]([O-])c1cc(NS(=O)(=O)c2ccc(Br)cc2)c2ccccc2c1O (stereo not drawn) [Embodiment 9] | 0.7884 | slightly hygroscopic | –
10 | O=C(O)C[S+]([O-])c1cc(NS(=O)(=O)c2ccc(Br)cc2)c2ccccc2c1O (stereo not drawn) [Embodiment 11] | 1.897 | slightly hygroscopic | –
11 | O=C(O)C[S+]([O-])c1cc(NS(=O)(=O)c2ccc(Br)cc2)c2ccccc2c1O (stereo not drawn) [Embodiment 12] | 6.026 | – | –
